Data from patent US11780826B2 (Amgen Inc., priority 2017, dated 2023).

Tested on: Bovine cardiac myofibrils
Assay: In vitro model of dose-dependent myofibril ATPase modulation (AC1.4, pyruvate kinase/lactate dehydrogenase-coupled ATPase assay at pCa25)
Assay type: biochemical
Conditions: concentration at which ATPase activity was 1.4-fold higher than the bottom of the dose curve, mean of a minimum of two independent tests
Procedure, shortened: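 We measure calcium-buffered ATPase activity of detergent-skinned bovine cardiac myofibrils at pH 6.80 and 22° C with 1 mM ATP, using a PK/LDH-coupled NADH readout at 340 nm. Values come from four-parameter dose-response fits, averaged over at least two independent runs.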

Compound | AC1.4
CS(=O)(=O)c1cccc(C(=O)N2[C@@H](C(=O)NC(c3ccc(C(F)(F)F)cc3F)C3CNC(=O)C3)C[C@H]3C[C@H]32)c1 (stereo partly drawn) [Example 685, (1R,3R,5R)-N-((2-fluoro-4-(trifluoromethyl)phenyl)(5-oxopyrrolidin-3-yl)methyl)-2-(3-(methylsulfonyl)benzoyl)-2-azabicyclo[3.1.0]hexane-3-carboxamide] | 5.246 µM
COC1CCN(S(=O)(=O)c2cccc(C(=O)N3CCC[C@@H]3C(=O)NCc3ccc(C(F)(F)F)cc3)c2)CC1 [Example 474, 1-((3-((4-methoxy-1-piperidinyl)sulfonyl)phenyl)carbonyl)-N-(4-(trifluoromethyl)benzyl)-D-prolinamide] | 2.036 µM
N#CC1CN(S(=O)(=O)c2cccc(C(=O)N3CCC[C@@H]3C(=O)NCc3ccc(C(F)(F)F)nc3)c2)C1 [Example 131, 1-((3-((3-cyano-1-azetidinyl)sulfonyl)phenyl)carbonyl)-N-((6-(trifluoromethyl)-3-pyridinyl)methyl)-D-prolinamide] | 0.2158 µM
N#CC1CN(S(=O)(=O)N2CCC[C@H](C(=O)N3CCC[C@@H]3C(=O)N[C@@H](c3ccc(Cl)cc3F)C3CC3)C2)C1 [Example 2, N-((R)-(4-chloro-2-fluorophenyl)(cyclopropyl)methyl)-1-(((3S)-1-((3-cyano-1-azetidinyl)sulfonyl)-3-piperidinyl)carbonyl)-D-prolinamide] | 0.01475 µM
N#CC1CN(S(=O)(=O)c2cccc(C(=O)N3CCC[C@@H]3C(=O)NCc3ccc(C(F)(F)F)cn3)c2)C1 [Example 644, 1-((3-((3-cyano-1-azetidinyl)sulfonyl)phenyl)carbonyl)-N-((5-(trifluoromethyl)-2-pyridinyl)methyl)-D-prolinamide] | 4.3367 µM
COc1cc(F)cc(CNC(=O)[C@H]2CCCN2C(=O)[C@H]2CCCN(S(=O)(=O)N3CC(C#N)C3)C2)c1 [Example 681, 1-(((3S)-1-((3-cyano-1-azetidinyl)sulfonyl)-3-piperidinyl)carbonyl)-N-(3-fluoro-5-methoxybenzyl)-D-prolinamide] | 5.0425 µM
CC[C@@H](NC(=O)[C@H]1CCCN1C(=O)c1cccc(S(C)(=O)=O)c1)c1ccc(C(F)(F)F)cc1F [Example 630, N-((1R)-1-(2-fluoro-4-(trifluoromethyl)phenyl)propyl)-1-(3-(methylsulfonyl)benzoyl)-D-prolinamide] | 3.9185 µM
N#CC1CN(S(=O)(=O)N2CC(C(=O)N3CCC[C@@H]3C(=O)NCc3ccc(C(F)(F)F)cc3)CC(F)(F)C2)C1 (stereo partly drawn) [Example 77, 1-((-1-((3-cyano-1-azetidinyl)sulfonyl)-5,5-difluoro-3-piperidinyl)carbonyl)-N-(4-(trifluoromethyl)benzyl)-D-prolinamide] | 0.1016 µM
CS(=O)(=O)c1ccc(C(=O)N2CCC[C@@H]2C(=O)NC(c2ccc(C(F)(F)F)cc2F)C2CC2)cn1 (stereo partly drawn) [Example 569, (2R)-N-(cyclopropyl(2-fluoro-4-(trifluoromethyl)phenyl)methyl)-1-(6-(methylsulfonyl)nicotinoyl)pyrrolidine-2-carboxamide] | 3.182 µM
C[C@@H](NC(=O)[C@H]1CCCN1C(=O)[C@H]1CCCN(S(=O)(=O)N2CC(C#N)C2)C1)c1cccc(C(F)(F)F)c1 [Example 465, 1-(((3S)-1-((3-cyano-1-azetidinyl)sulfonyl)-3-piperidinyl)carbonyl)-N-((1R)-1-(3-(trifluoromethyl)phenyl)ethyl)-D-prolinamide] | 1.9455 µM
N#CC1CN(S(=O)(=O)N2CCC[C@H](C(=O)N3CCC[C@@H]3C(=O)NCc3ccccc3)C2)C1 [Example 758, (R)—N-benzyl-1-((S)-1-((3-cyanoazetidin-1-yl)sulfonyl)piperidine-3-carbonyl)pyrrolidine-2-carboxamide] | 7.61 µM
N#CC1CN(S(=O)(=O)c2cccc(C(=O)N3CCC[C@@H]3C(=O)N[C@H](CO)c3ccc(Cl)c(F)c3)c2)C1 [Example 24, N-((1S)-1-(4-chloro-3-fluorophenyl)-2-hydroxyethyl)-1-(3-((3-cyano-1-azetidinyl)sulfonyl)benzoyl)-D-prolinamide] | 0.02875 µM
COc1ccc(CNC(=O)[C@H]2CCCN2C(=O)[C@H]2CCCN(S(=O)(=O)N3CC(C#N)C3)C2)c(F)c1 [Example 557, 1-(((3S)-1-((3-cyano-1-azetidinyl)sulfonyl)-3-piperidinyl)carbonyl)-N-(2-fluoro-4-methoxybenzyl)-D-prolinamide] | 2.9265 µM
N#CC1CN(S(=O)(=O)N2CCC[C@H](C(=O)N3CCC[C@@H]3C(=O)NCc3cccc(C(F)(F)F)c3F)C2)C1 [Example 335, 1-(((3S)-1-((3-cyano-1-azetidinyl)sulfonyl)-3-piperidinyl)carbonyl)-N-(2-fluoro-3-(trifluoromethyl)benzyl)-D-prolinamide] | 0.9362 µM
COc1ccc2c(c1)[C@H](NC(=O)[C@H]1CCCN1C(=O)[C@H]1CCCN(S(=O)(=O)N3CC(C#N)C3)C1)CCO2 [Example 783, 1-(((3S)-1-((3-cyano-1-azetidinyl)sulfonyl)-3-piperidinyl)carbonyl)-N-((4R)-6-methoxy-3,4-dihydro-2H-chromen-4-yl)-D-prolinamide] | 8.7825 µM
N#CC1CN(S(=O)(=O)N2CCC[C@H](C(=O)N3C[C@@H](F)C[C@@H]3C(=O)NCc3cccc(C(F)(F)F)c3)C2)C1 [Example 427, (4S)-1-(((3S)-1-((3-cyano-1-azetidinyl)sulfonyl)-3-piperidinyl)carbonyl)-4-fluoro-N-(3-(trifluoromethyl)benzyl)-D-prolinamide] | 1.5865 µM
N#CC1CN(S(=O)(=O)N2CCC[C@H](C(=O)N3CCC[C@@H]3C(=O)NCc3cccc(Cl)c3)C2)C1 [Example 438, N-(3-chlorobenzyl)-1-(((3S)-1-((3-cyano-1-azetidinyl)sulfonyl)-3-piperidinyl)carbonyl)-D-prolinamide] | 1.712 µM
N#CC1CN(S(=O)(=O)N2CCC[C@H](C(=O)N3CCC[C@@H]3C(=O)NC(c3ccccc3)c3ccc(Cl)cc3)C2)C1 (stereo partly drawn) [Example 268, (2R)-N-((4-chlorophenyl)(phenyl)methyl)-1-((S)-1-((3-cyanoazetidin-1-yl)sulfonyl)piperidine-3-carbonyl)pyrrolidine-2-carboxamide] | 0.6764 µM
N#CC1(F)CN(S(=O)(=O)N2CCC[C@H](C(=O)N3CCC[C@@H]3C(=O)NCc3ccc(C(F)(F)F)cc3F)C2)C1 [Example 327, 1-(((3S)-1-((3-cyano-3-fluoro-1-azetidinyl)sulfonyl)-3-piperidinyl)carbonyl)-N-(2-fluoro-4-(trifluoromethyl)benzyl)-D-prolinamide] | 0.8893 µM
Cc1ccc(Cl)cc1CNC(=O)[C@H]1CCCN1C(=O)[C@H]1CCCN(S(=O)(=O)N2CC(C#N)C2)C1 [Example 618, N-(5-chloro-2-methylbenzyl)-1-(((3S)-1-((3-cyano-1-azetidinyl)sulfonyl)-3-piperidinyl)carbonyl)-D-prolinamide] | 3.9205 µM
Cc1ccc(CNC(=O)[C@H]2CCCN2C(=O)c2cccc(S(=O)(=O)N3CC(C#N)C3)c2)cc1 [Example 106, 1-((3-((3-cyano-1-azetidinyl)sulfonyl)phenyl)carbonyl)-N-(4-methylbenzyl)-D-prolinamide] | 0.164 µM
CS(=O)(=O)c1cccc(C(=O)N2C[C@@H](F)C[C@@H]2C(=O)N[C@@H](c2cc(F)c(Cl)cc2F)C2CC2)c1 [Example 201, (4S)-N-((R)-(4-chloro-2,5-difluorophenyl)(cyclopropyl)methyl)-4-fluoro-1-(3-(methylsulfonyl)benzoyl)-D-prolinamrde] | 0.411 µM
N#CC1CN(S(=O)(=O)N2CCC[C@H](C(=O)N3CCC[C@@H]3C(=O)NCc3ccc(Cl)cc3F)C2)C1 [Example 70, N-(4-chloro-2-fluorobenzyl)-1-(((3S)-1-((3-cyano-1-azetidinyl)sulfonyl)-3-piperidinyl)carbonyl)-D-prolinamide] | 0.08855 µM
COc1cc2c(cc1F)CCC2NC(=O)[C@H]1CCCN1C(=O)[C@H]1CCCN(S(=O)(=O)N2CC(C#N)C2)C1 (stereo partly drawn) [Example 622, (2R)-1-((S)-1-((3-cyanoazetidin-1-yl)sulfonyl)piperidine-3-carbonyl)-N-(5-fluoro-6-methoxy-2,3-dihydro-1H-inden-1-yl)pyrrolidine-2-carboxamide] | 3.9515 µM
C[C@@H](NC(=O)[C@H]1CCCN1C(=O)[C@H]1CCCN(S(=O)(=O)N2CC(C#N)C2)C1)c1ccc(C(F)(F)F)cc1 [Example 84, 1-(((3S)-1-((3-cyano-1-azetidinyl)sulfonyl)-3-piperidinyl)carbonyl)-N-((1R)-1-(4-(trifluoromethyl)phenyl)ethyl)-D-prolinamide] | 0.1147 µM
N#CC1CN(S(=O)(=O)N2CCC[C@H](C(=O)N3CCC[C@@H]3C(=O)N[C@H](CO)c3ccc(Cl)c(F)c3)C2)C1 [Example 78, N-((1S)-1-(4-chloro-3-fluorophenyl)-2-hydroxyethyl)-1-(((3S)-1-((3-cyano-1-azetidinyl)sulfonyl)-3-piperidinyl)carbonyl)-D-prolinamide] | 0.1023 µM
N#CC1CN(S(=O)(=O)N2CCC[C@H](C(=O)N3CCC[C@@H]3C(=O)N[C@@H](c3ccc(C(F)(F)F)cc3)C(F)(F)F)C2)C1 [Example 198, 1-(((3S)-1-((3-cyano-1-azetidinyl)sulfonyl)-3-piperidinyl)carbonyl)-N-((1S)-2,2,2-trifluoro-1-(4-(trifluoromethyl)phenyl)ethyl)-D-prolinamide] | 0.4034 µM
N#CC1CN(S(=O)(=O)c2cccc(C(=O)N3CCC[C@@H]3C(=O)NCc3cc(F)cc(F)c3F)c2)C1 [Example 100, 1-(3-((3-cyano-1-azetidinyl)sulfonyl)benzoyl)-N-(2,3,5-trifluorobenzyl)-D-prolinamide] | 0.1502 µM
